From a melting point compilation (Tetko et al.; mined from patent text by program, amines drawn as free bases though some values may be those of a salt)

**Q.** Which melting point does the source give for `O=S1(=O)c2cccc3cccc(c23)N1CCN1CCC(CC2=Cc3ccccc3C2)CC1` here?
**A.** The melting point was 176 °C.

**Q.** Which melting point does the source give for `Cn1cncc1-c1cccc(Nc2ccc3ccccc3n2)c1` here?
**A.** The melting point was 60 to 65 °C.

**Q.** With `CCCSc1nc2c(cc1C#N)C(=O)CC(C)(C)C2` as the compound, how does the melting point read?
**A.** Its melting point is 100 to 102 °C.

**Q.** For `COc1ccc(/C=C/c2nc3ncccc3c(=O)o2)cc1OC`, which melting point is on record?
**A.** Its melting point is 228 to 231 °C.

**Q.** For `Cc1sc(C(=O)O)cc1NC(=O)NCc1ccccc1`, which melting point is on record?
**A.** The melting point was 259 to 260 °C.

**Q.** For `C[C@]12CCC(=O)N[C@@H]1CCc1cc(Sc3ccccc3)ccc12`, which melting point is on record?
**A.** The melting point was 183 to 185 °C.

**Q.** With `CCOC(=O)C1(C(=O)OCC)Cc2ccc(OC)c(Cl)c2O1` as the compound, how does the melting point read?
**A.** Its melting point is 97 to 99 °C.

**Q.** For `CCN(CC)Cc1ccc(-c2ccc3c(Nc4cc(OC)c(Cl)cc4Cl)c(C#N)cnc3c2)cc1`, which melting point is on record?
**A.** The melting point was 191 to 195 °C.

**Q.** Which melting point does the source give for `COc1cccc(NC(=O)NCC(=O)N2[C@@H](C(=O)OC(C)(C)C)CC[C@H]2c2ccccc2)c1` (racemic) here?
**A.** Its melting point is 174 °C.

**Q.** Which melting point does the source give for `CC(O)(CCBr)C1CCCCC1` (centres undefined) here?
**A.** The melting point was 31 to 33 °C.

**Q.** For `CSc1ccc(-c2c(C)nnc(Cl)c2-c2ncc(Cl)cc2Cl)nc1`, which melting point is on record?
**A.** Its melting point is 163 °C.

**Q.** For `COc1ccc(-c2csc(Nc3cc(OC)ccc3OC)n2)cc1`, which melting point is on record?
**A.** Its melting point is 104 °C.

**Q.** Which melting point does the source give for `COc1cc(C(=O)c2cn(C)c(-c3cn(C)c4ccccc34)n2)cc(OC)c1OC` here?
**A.** Its melting point is 164 to 166 °C.

**Q.** For `Cc1nc(-c2ccc(S(N)(=O)=O)c(F)c2)c(-c2ccc(-c3cscn3)cc2)o1`, which melting point is on record?
**A.** The melting point was 192 to 194 °C.

**Q.** Which melting point does the source give for `C[C@](O)(CBr)C(=O)Nc1ccc(C#N)c(C(F)(F)F)c1` here?
**A.** The melting point was 124 to 126 °C.

**Q.** For `NC(=O)Cn1ccc2ccccc21`, which melting point is on record?
**A.** The melting point was 177 to 179 °C.

**Q.** With `CC1=C([N+](=O)[O-])C(c2cccc(Cl)c2Cl)c2c[nH]nc2N1` (centres undefined) as the compound, how does the melting point read?
**A.** The melting point was over 270 °C.

**Q.** For `CC(C)(O)c1nnc2ccc(-c3c(-c4ccc(F)cc4F)nc4n3CCC4)nn12`, which melting point is on record?
**A.** The melting point was 222 to 223 °C.

**Q.** With `O=c1c2c(n(-c3ccccc3)c3ncccc13)OC(CI)C2` (centres undefined) as the compound, how does the melting point read?
**A.** The melting point was 178 to 180 °C.

**Q.** For `C=CC(COC(c1ccccc1)(c1ccccc1)c1ccccc1)OCCCCCCCCCCCCCCCC` (centres undefined), which melting point is on record?
**A.** The melting point was 34 °C.

**Q.** With `CCCc1c(OCCCCc2ccc3cc(OCc4ccccc4)c(OCc4ccccc4)cc3c2)ccc(C(=O)OCc2ccccc2)c1O` as the compound, how does the melting point read?
**A.** Its melting point is 87 to 89 °C.

**Q.** With `COC(=O)CCn1c(C(=O)O)c(C)c2cc(C)ccc21` as the compound, how does the melting point read?
**A.** Its melting point is 169 °C.

**Q.** With `CCOC(=O)CNC(=O)c1cn2nc(Cl)ccc2n1` as the compound, how does the melting point read?
**A.** The melting point was 190 to 191 °C.

**Q.** For `O=C(O)COc1ccc(C(=O)c2ccoc2)c2ccccc12`, which melting point is on record?
**A.** Its melting point is 177 °C.

**Q.** Which melting point does the source give for `CCOc1ccc(Nc2ncc(C(=O)O)c(=O)[nH]2)cc1OCC` here?
**A.** Its melting point is 243 to 245 °C.

**Q.** With `COC(=O)CCCc1cc2nc(Cl)ccc2n1S(=O)(=O)c1ccc(C)cc1Cl` as the compound, how does the melting point read?
**A.** The melting point was 88 to 89 °C.

**Q.** Which melting point does the source give for `COC(=O)c1cn(-c2ccc(F)cc2)c(-c2ccc(Cl)cc2)cc1=O` here?
**A.** The melting point was 250 to 254 °C.

**Q.** For `Cc1nc(N2CCN(Cc3ccc(F)cc3)C2=O)sc1C(=O)NCc1ccccc1`, which melting point is on record?
**A.** The melting point was 192 to 193 °C.

**Q.** For `CN1CC=C(c2c[nH]c3ccc(C4CN=CS4)cc23)CC1` (centres undefined), which melting point is on record?
**A.** Its melting point is 260 to 263 °C.

**Q.** With `CCC(=O)OC(C)c1ccc(-c2ccc(O)cc2)cc1` (single isomer, unassigned; (+)) as the compound, how does the melting point read?
**A.** The melting point was 133 to 135 °C.

**Q.** Which melting point does the source give for `CN(C)CCSc1sc(-c2cc[nH]n2)c2c1C(=O)CC(C)(C)C2` here?
**A.** Its melting point is 212 to 214 °C.

**Q.** For `COC(=O)c1ccccc1COc1ccc(-c2cc(O)c(SCCc3ccccc3)c(=O)o2)cc1`, which melting point is on record?
**A.** The melting point was 161 to 162 °C.

**Q.** Which melting point does the source give for `Cc1csc2c(=O)n(CCC(C(=O)NO)N(C)S(=O)(=O)c3ccc(Oc4ccccc4)cc3)c(=O)[nH]c12` (centres undefined) here?
**A.** Its melting point is 170 to 171 °C.

**Q.** With `CN1CCN(C)C(c2ccc(Nc3nc(Br)cn(C)c3=O)cc2)C1=O` (centres undefined) as the compound, how does the melting point read?
**A.** Its melting point is 206 to 207 °C.

**Q.** Which melting point does the source give for `O=c1c2cc(Cl)ccc2ccc2ncccc12` here?
**A.** The melting point was 140 to 142 °C.

**Q.** With `C=CCOc1ccc(C(=O)CC(C#N)(CCC)c2ccc(OC)cc2OC)cc1` (centres undefined) as the compound, how does the melting point read?
**A.** The melting point was 86.1 to 87.1 °C.

**Q.** With `CCOCn1c(C(=O)c2ccccc2)c(CC)c(=O)[nH]c1=O` as the compound, how does the melting point read?
**A.** Its melting point is 133 to 134 °C.

**Q.** Which melting point does the source give for `[O-][N+]1=C(c2ccccc2F)c2cc(Cl)ccc2-c2ncncc2C1` here?
**A.** The melting point was 185 to 186 °C.

**Q.** Which melting point does the source give for `CC(Cc1cccc(N)c1)(NC=O)c1ccccc1` (centres undefined) here?
**A.** The melting point was 114 to 115 °C.

**Q.** Which melting point does the source give for `COc1cc2c(cc1OC)Sc1ccccc1C(Cl)C2` (centres undefined) here?
**A.** The melting point was 155 to 160 °C.

**Q.** With `CC(Oc1nn(-c2ccccc2)cc1-c1ccccc1)C(=O)O` (centres undefined) as the compound, how does the melting point read?
**A.** Its melting point is 175 to 178 °C.

**Q.** With `O=S(=O)(Nc1onc(-c2ccccc2)c1Br)c1ccccc1` as the compound, how does the melting point read?
**A.** The melting point was 113 to 115 °C.

**Q.** For `Nc1nc(Nc2ccc(S(N)(=O)=O)cc2)sc1C(=O)c1c(Cl)cc(C(F)(F)F)cc1Cl`, which melting point is on record?
**A.** The melting point was 294 to 296 °C.

**Q.** For `NS(=O)(=O)c1ccc(S(=O)(=O)CCCO)c([N+](=O)[O-])c1`, which melting point is on record?
**A.** Its melting point is 168 to 170 °C.

**Q.** For `C/C(=C\CC1SC(=O)NC1=O)c1cccc(OCc2nc(-c3ccc(OC(F)(F)F)cc3)oc2C)c1` (centres undefined), which melting point is on record?
**A.** Its melting point is 50 to 51 °C.

**Q.** With `CN1CCCCC1=C1C(=O)N(c2cccc(Cl)c2)c2ccccc21` as the compound, how does the melting point read?
**A.** Its melting point is 162 to 165 °C.

**Q.** For `COc1ccc(CN2C(=O)C(C)(c3cc(C(=O)N(C)CC(F)(F)F)ccc3Cl)c3cc(Cl)ccc32)c(OC)c1` (centres undefined), which melting point is on record?
**A.** The melting point was 89 °C.

**Q.** Which melting point does the source give for `CCOCc1nc2c(N)nc(C)c(C)c2n1Cc1cc(-c2cccnc2)no1` here?
**A.** The melting point was 189 to 191 °C.

**Q.** For `COC(=O)C1=C(C)NC(C)=C(C(=O)OCCCCCCOc2cc(-c3ccccc3)[nH]n2)C1c1cccc([N+](=O)[O-])c1` (centres undefined), which melting point is on record?
**A.** The melting point was 151 to 153 °C.
